Like-named read-outs stand apart in the source and are kept apart here.
Target: T1, Calpain I (Homo sapiens, UniProt P07384)
T1 construct: made in house
T1 sequence (P07384 1-714): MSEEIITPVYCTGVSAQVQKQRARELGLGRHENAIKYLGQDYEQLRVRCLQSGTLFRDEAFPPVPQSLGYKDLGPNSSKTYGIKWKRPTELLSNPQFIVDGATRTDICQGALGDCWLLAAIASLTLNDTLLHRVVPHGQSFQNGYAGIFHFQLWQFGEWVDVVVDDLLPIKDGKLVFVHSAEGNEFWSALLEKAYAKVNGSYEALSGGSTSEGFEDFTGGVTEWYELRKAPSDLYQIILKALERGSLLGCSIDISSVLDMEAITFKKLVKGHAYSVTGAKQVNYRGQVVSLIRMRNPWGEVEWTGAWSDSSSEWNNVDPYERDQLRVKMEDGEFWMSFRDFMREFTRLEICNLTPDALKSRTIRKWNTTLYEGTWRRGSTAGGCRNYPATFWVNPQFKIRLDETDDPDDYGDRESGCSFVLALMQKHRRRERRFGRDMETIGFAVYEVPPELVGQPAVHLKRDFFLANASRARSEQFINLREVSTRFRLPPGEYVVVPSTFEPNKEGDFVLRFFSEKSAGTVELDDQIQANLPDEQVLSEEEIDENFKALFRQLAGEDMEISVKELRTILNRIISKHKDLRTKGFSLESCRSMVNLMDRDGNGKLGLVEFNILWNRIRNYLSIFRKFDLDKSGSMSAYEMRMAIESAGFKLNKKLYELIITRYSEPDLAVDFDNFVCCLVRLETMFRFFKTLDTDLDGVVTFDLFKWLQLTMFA
T1 sequence (P04632 1-268 partner): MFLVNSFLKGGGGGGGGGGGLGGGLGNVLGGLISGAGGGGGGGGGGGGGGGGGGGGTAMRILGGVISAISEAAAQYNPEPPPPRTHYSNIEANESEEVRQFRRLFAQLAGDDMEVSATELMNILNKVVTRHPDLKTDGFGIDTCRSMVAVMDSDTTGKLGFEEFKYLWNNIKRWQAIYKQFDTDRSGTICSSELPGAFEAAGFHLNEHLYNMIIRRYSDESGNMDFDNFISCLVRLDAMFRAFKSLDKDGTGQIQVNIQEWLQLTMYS
Assay: Inhibition of calpain I activity (Succ-Leu-Tyr-MNA substrate hydrolysis, fluorescence)
Assay type: biochemical
Method: To evaluate inhibitory activity, stock solutions (40 times concentrated) of each compound to be tested were prepared in 100% anhydrous DMSO and […] of each inhibitor preparation were aliquoted into each of three wells of a 96-well plate. Calpain I, prepared by a modification of the method of W. J. Lee et al. (Biochem. […] To start the reaction, […] of 50 mM CaCl2 in assay buffer was added to each of the wells of the plate, excepting three, which were used as background signal baseline controls. Substrate hydrolysis was monitored every 5 minutes for a total of 30 minutes using a Fluoroskan II fluorescence plate reader. […] Inhibition of calpain I activity was calculated as the percent decrease in the rate of substrate hydrolysis in the presence of inhibitor relative to the rate in its absence. Comparison between the inhibited and control rates was made within the linear range for substrate hydrolysis. For screening, compounds were tested at […]. […] The results were plotted as percent inhibition versus log inhibitor concentration, and the IC50 was calculated from linear regression of the data.

[1] = Table III, calpain I, 0.2 mM Succ-Leu-Tyr-MNA, pH 7.5, * mixture of diastereomers, a,b single diastereomers, read-out: IC50
[2] = Table II, calpain I, 0.2 mM Succ-Leu-Tyr-MNA, pH 7.5, * mixture of diastereomers, a,b single diastereomers, read-out: IC50

Row | Structure (SMILES) | IC50 [1] | IC50 [2] | further results
1 | CCN1C(C(=O)N[C@@H](Cc2ccccc2)C(=O)C(=O)NCCNS(=O)(=O)c2ccc(Cl)c(Cl)c2)Cc2cc3c(cc2S1(=O)=O)OCCO3 (stereo partly drawn) [Cpd 14V, 3-((3,4-Dihydro-6,7-ethylenedioxy-2-ethyl-2H-1,2-benzothiazine-3-carbonyl)amino)-3-(S)-benzyl-2-oxo-N-(2-(3,4-dichlorobenzenesulfonylamino)ethyl)propanamide 1,1-dioxide] | 56 nM | – | –
2 | COc1cc2c(cc1OC)S(=O)(=O)N(C)C(C(=O)N[C@H](C=O)Cc1ccccc1)C2 (stereo partly drawn) [Cpd 12e, N-(3,4-Dihydro-6,7-dimethoxy-2-methyl-2H-1,2-benzothiazine-3-carbonyl)-L-phenylalaninal 1,1-dioxide] | – | 200 nM | –
3 | CCN1C(C(=O)N[C@@H](Cc2ccccc2)C(O)S(=O)(=O)O)Cc2cc3c(cc2S1(=O)=O)OCCO3 (stereo partly drawn) [Example 187, N-(3,4-Dihydro-6,7-ethylenedioxy-2-ethyl-2H-1,2-benzothiazine-3-carbonyl)-L-phenylalaninal 1,1-dioxide, bisulfite addition compound] | – | – | IC50 (Example 187, in text, bisulfite addition compound, read-out: IC50 (calpain)): 8 nM
4 | O=C[C@H](Cc1ccccc1)NC(=O)C1=Nc2ccccc2S(=O)(=O)N1 [Cpd 42a, N-(2H-1,2,4-Benzothiadiazine-3-carbonyl)-L-phenylalaninal 1,1-dioxide] | – | – | IC50 (Table VI, calpain I, 0.2 mM Succ-Leu-Tyr-MNA, pH 7.5, read-out: IC50): 83 nM
5 | CCN1C(C(=O)N[C@@H](Cc2ccccc2)C(=O)C(=O)NCCCNS(=O)(=O)c2ccc([N+](=O)[O-])cc2)Cc2cc3c(cc2S1(=O)=O)OCCO3 (stereo partly drawn) [Cpd 14U, 3-((3,4-Dihydro-6,7-ethylenedioxy-2-ethyl-2H-1,2-benzothiazine-3-carbonyl)amino)-3-(S)-benzyl-2-oxo-N-(3-(4-nitrobenzenesulfonylamino)propyl)propanamide 1,1-dioxide] | 50 nM | – | –
6 | CN1C(C(=O)N[C@H](C=O)CCCCNS(=O)(=O)c2ccccc2)Cc2cc3c(cc2S1(=O)=O)OCCO3 (stereo partly drawn) [Cpd 12x, Nα -(3,4-Dihydro-6,7-ethylenedioxy-2-methyl-2H-1,2-benzothiazine-3-carbonyl)-L-Nε -(benzenesulfonyl)lysinal 1,1-dioxide] | – | 36 nM | –
7 | CN1C(C(=O)N[C@H](C=O)Cc2ccccc2)Cc2cc(N3CCOCC3)ccc2S1(=O)=O (stereo partly drawn) [Cpd 12aa, N-(3,4-Dihydro-6-(4-morpholino)-2-methyl-2H-1,2-benzothiazine-3-carbonyl)-L-phenylalaninal 1,1-dioxide] | – | 30 nM | –
8 | CCCCNC(=O)C(=O)[C@H](Cc1ccccc1)NC(=O)C1Cc2cc3c(cc2S(=O)(=O)N1)OCCO3 (stereo partly drawn) [Cpd 14AD, N-Butyl-3-(3,4-Dihydro-6,7-ethylenedioxy-2H-1,2-benzothiazine-3-carboxamido)-2-oxo-3-(S)-benzylpropanamide 1,1-dioxide] | ~200 nM | – | –
9 | COc1cc2c(cc1OC)S(=O)(=O)OC(C(=O)N[C@H](C=O)CC(C)C)C2 (stereo partly drawn) [Cpd 12a, N-(3,4-Dihydro-6,7-dimethoxy-2,1-benzoxathiin-3-carbonyl)-L-leucinal 1,1-dioxide] | – | 130 nM | –
10 | CCN1C(C(=O)N[C@@H](Cc2ccccc2)C(=O)C(=O)NCCNS(=O)(=O)c2ccc(F)cc2)Cc2cc3c(cc2S1(=O)=O)OCCO3 (stereo partly drawn) [Cpd 14AC, 3-((3,4-Dihydro-6,7-ethylenedioxy-2-ethyl-2H-1,2-benzothiazine-3-carbonyl)amino)-3-(S)-benzyl-2-oxo-N-(2-(4-fluorobenzenesulfonylamino)ethyl)propanamide 1,1-dioxide] | 29 nM | – | –
11 | CCN1C(C(=O)N[C@@H](Cc2ccccc2)C(=O)C(=O)NCCNS(=O)(=O)c2ccccc2)Cc2cc3c(cc2S1(=O)=O)OCCO3 (stereo partly drawn) [Cpd 14X, 3-((3,4-Dihydro-6,7-ethylenedioxy-2-ethyl-2H-1,2-benzothiazine-3-carbonyl)amino)-3-(S)-benzyl-2-oxo-N-(2-(benzenesulfonylamino)ethyl)propanamide 1,1-dioxide] | 40 nM | – | –
12 | CN1C(=O)c2ccccc2CC1C(=O)N[C@H](C=O)Cc1ccccc1 (single isomer, unassigned) [Cpd 50c, N-(1-Oxo-2-methyl-1,2,3,4-tetrahydroisoquinoline-3-carbonyl)-L-phenylalaninal] | – | – | IC50 (Table VII, calpain I, 0.2 mM Succ-Leu-Tyr-MNA, pH 7.5, a,b single diastereomers, read-out: IC50): ~1000 nM
13 | CN1C(C(=O)N[C@H](C=O)Cc2ccccc2)Cc2ccccc2S1(=O)=O (stereo partly drawn) [Cpd 12i, N-(3,4-Dihydro-2-methyl-2H-1,2-benzothiazine-3-carbonyl)-L-phenylalaninal 1,1-dioxide] | – | 28 nM | –

Reference: patent publication US5952328A, “Benzothiazo and related heterocyclic group-containing cysteine and serine protease inhibitors” (Cephalon, Inc., priority 1997, dated 1999)
